Reference: article PMC10578352, “Identification of a Protein Arginine Methyltransferase 7 (PRMT7)/Protein Arginine Methyltransferase 9 (PRMT9) Inhibitor” (Journal of Medicinal Chemistry, 2023)

Legend:
GST-HsPRMT7 = target: T1, GST-HsPRMT7 (Homo sapiens, UniProt Q9NVM4); test: Radioisotope-based assay (SDS-PAGE, fluorography, densitometry), HsPRMT7; format: biochemical; conditions: substrate HsH2B, 15 °C, read-out: % HsPRMT7 residual activity
T1 construct: made in house; host or cells: E. coli
T1 sequence (Q9NVM4 1-692): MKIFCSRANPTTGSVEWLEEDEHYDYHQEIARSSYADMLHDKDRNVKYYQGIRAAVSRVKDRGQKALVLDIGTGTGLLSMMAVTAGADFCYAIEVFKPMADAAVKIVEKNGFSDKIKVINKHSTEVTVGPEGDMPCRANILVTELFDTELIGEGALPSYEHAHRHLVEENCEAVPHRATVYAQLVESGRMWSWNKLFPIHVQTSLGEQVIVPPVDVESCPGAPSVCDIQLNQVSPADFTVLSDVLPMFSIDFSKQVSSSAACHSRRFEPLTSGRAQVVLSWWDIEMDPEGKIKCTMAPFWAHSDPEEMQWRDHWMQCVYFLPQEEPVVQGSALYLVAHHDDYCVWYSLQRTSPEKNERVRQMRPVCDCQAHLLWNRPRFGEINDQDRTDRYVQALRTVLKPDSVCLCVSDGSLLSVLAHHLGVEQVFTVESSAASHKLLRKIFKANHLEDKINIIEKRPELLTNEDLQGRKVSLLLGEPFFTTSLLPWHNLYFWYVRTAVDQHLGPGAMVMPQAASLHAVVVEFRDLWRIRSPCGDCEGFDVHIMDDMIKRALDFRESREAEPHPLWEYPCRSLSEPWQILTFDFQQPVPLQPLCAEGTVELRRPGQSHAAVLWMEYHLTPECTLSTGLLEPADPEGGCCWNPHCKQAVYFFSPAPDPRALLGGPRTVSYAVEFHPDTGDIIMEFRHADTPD
Description: (§1) Based on these outcomes, we resolved to explore the effect on the capability to inhibit PRMT9 enzymatic activity of further reduction of the distance between the pharmacophoric moieties. […] After the experiment was repeated with 100, 250, and 500 μM concentrations of each inhibitor, half inhibition was observed only at a concentration of roughly 250 μM (Figure 4d).
(§2) […]. The experiments were performed as reported in the Experimental procedures section. GST-HsPRMT9 (a) and GST-HsPRMT7 (b) were incubated with human GST-SF3B2 (401–550) peptide or recombinant HsH2B, respectively (1 μg of enzyme, 5 μg of substrate), 0.14 μM [^3H]SAM, and the indicated concentrations of tested compounds at the corresponding optimal reaction temperature (37 °C for HsPRMT9, 15 °C for HsPRMT7). C. elegans GST-tagged enzymes PRMT9 (c) and PRMT7 (d) were incubated with GST-CeSFTB-2 (99–248) fragment or recombinant HsH2B, respectively (1 μg of enzyme, 5 μg of substrate), 0.14 μM [^3H]SAM, and the indicated concentrations of tested compounds at the corresponding optimal reaction temperature (25 °C for CePRMT9, 15 °C for CePRMT7). After SDS-PAGE, the gels were treated as previously described[48] and densitometry analysis was done using ImageJ software, and data was plotted as normalized activity to the no inhibitor controls.
(§3) Human PRMT9, C. elegans PRMT9, human PRMT7, and C. elegans PRMT7 plasmids were sequenced, expressed in E. coli as GST-fusion proteins, and purified as previously described.[48] Substrates were also sequenced and purified as described [human GST-SF3B2 (401–550);[13]C. elegans SFTB-2;[48] human histone H2B (New England Biolabs, M2505S)]. Xenopus laevis histone H2B was expressed in E. coli and purified similarly to what was previously reported by Luger et al.[72]
(§4) Reactions consisting of approximately 1 μg of enzyme (human or C. elegans GST-tagged enzymes PRMT9 and PRMT7), reacted with approximately 5 μg of substrate [for human PRMT9, human GST-SF3B2 401–550 fragment; C. elegans PRMT9 with C. elegans GST-SFTB-2 (99–248) fragment, or recombinant human histone H2B from New England Biolabs (M2505S)], were incubated for the indicated time in reaction buffer {50 mM potassium HEPES buffer, 10 mM NaCl, 1 mM dithiothreitol (DTT), pH 8.0 with 0.7 μM S-adenosyl-L-[methyl-^3H]methionine (^3H-AdoMet, PerkinElmer Life Sciences, 82.7 Ci/mmol, 0.55 mCi/mL in 10 mM H2SO4/EtOH [9:1 (v/v)])} in a final reaction volume of 60 μL. Each reaction was incubated at the corresponding optimal reaction temperature (37 °C for human PRMT9, 25 °C for C. elegans PRMT9, and 15 °C for C. elegans and human PRMT7 enzymes. MTA was dissolved in water, and a wavelength scan was taken to determine the final concentration using the extinction coefficient. The final concentrations used are indicated in the figure legends. […]. EML734, EML736, and EML709 were also dissolved in DMSO, and further dilutions were made in DMSO for the working stocks. For controls, no inhibitor reactions were created by the addition of the respective solvent (water for MTA and DMSO for EPZ015666 and EML inhibitors).
After the reaction incubations with the various concentrations of inhibitors, the reactions were quenched by adding 0.2 volume of 5× SDS sample loading buffer, and subsequently, the reactions were run on a 12.6% polyacrylamide Tris gel. To collect the radioactive signal, the gels were then treated in the same way as previously described.[48] […]

CePRMT9 = test: Radioisotope-based assay (SDS-PAGE, fluorography, densitometry), CePRMT9; format: biochemical, Caenorhabditis elegans; conditions: substrate GST-CeSFTB-2 (99–248), 25 °C
Description: as §1, §2, §3, §4
After the reaction incubations with the various concentrations of inhibitors, the reactions were quenched by adding 0.2 volume of 5× SDS sample loading buffer, and subsequently, the reactions were run on a 12.6% polyacrylamide Tris gel. To collect the radioactive signal, the gels were then treated in the same way as previously described.[48]
After various exposures were collected to ensure linear detection, densitometry analysis was done using ImageJ software, and data were plotted as normalized activity to the no inhibitor controls.

PRMT3 = target: T2, PRMT3 (Homo sapiens, UniProt O60678); test: HotSpot radioisotope-based filter assay, PRMT3; format: biochemical
T2 construct: PRMT3 (residues 2–531, C-terminus); with an N-terminal His-tag; His (N); purchased Reaction Biology Corporation
T2 sequence (O60678 2-531): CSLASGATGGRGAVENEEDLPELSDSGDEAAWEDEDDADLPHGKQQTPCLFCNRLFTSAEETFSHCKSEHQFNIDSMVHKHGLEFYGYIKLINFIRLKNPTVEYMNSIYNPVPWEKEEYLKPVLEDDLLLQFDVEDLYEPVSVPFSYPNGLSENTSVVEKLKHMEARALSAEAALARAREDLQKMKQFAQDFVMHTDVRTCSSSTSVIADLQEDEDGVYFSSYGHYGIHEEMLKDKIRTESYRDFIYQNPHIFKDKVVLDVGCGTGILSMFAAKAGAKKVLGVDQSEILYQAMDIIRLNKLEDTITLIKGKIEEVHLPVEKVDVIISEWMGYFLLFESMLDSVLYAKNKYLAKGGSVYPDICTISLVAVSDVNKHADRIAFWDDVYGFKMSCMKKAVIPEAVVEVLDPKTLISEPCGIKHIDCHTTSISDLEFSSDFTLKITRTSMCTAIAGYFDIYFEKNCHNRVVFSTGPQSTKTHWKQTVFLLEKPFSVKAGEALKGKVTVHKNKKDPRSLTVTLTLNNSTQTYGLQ
Description: (§5) Then, ^3H-SAM (final concentration of 1 μM) was delivered into the reaction mixture to initiate the reaction. After incubation for 60 min at 30 °C, the reaction mixture was delivered to filter-paper for detection (as assessed by scintillation). Data were analyzed using Excel and GraphPad Prism 6.0 software (GraphPad Software Inc., San Diego, CA) for IC50 curve fits using sigmoidal dose vs response - variable slope (four parameters) equations.

PRMT6 = target: T3, PRMT6 (Homo sapiens, UniProt Q96LA8); test: HotSpot radioisotope-based filter assay, PRMT6; format: biochemical
T3 construct: PRMT6 (residues 2–375, C-terminus); with an N-terminal GST-tag; GST (N); purchased Reaction Biology Corporation
T3 sequence (Q96LA8 2-375): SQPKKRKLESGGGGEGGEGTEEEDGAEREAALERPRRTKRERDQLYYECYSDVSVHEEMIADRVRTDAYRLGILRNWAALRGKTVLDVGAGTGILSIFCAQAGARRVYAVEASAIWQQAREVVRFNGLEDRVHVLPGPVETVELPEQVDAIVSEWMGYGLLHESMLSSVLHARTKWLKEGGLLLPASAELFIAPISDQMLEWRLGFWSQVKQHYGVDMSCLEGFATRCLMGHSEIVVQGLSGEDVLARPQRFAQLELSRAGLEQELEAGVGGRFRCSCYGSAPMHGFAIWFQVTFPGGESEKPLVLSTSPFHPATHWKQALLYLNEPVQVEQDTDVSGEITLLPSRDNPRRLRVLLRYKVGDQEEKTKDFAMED
Description: as §5

PRMT8 = target: T4, PRMT8 (Homo sapiens, UniProt Q9NR22); test: HotSpot radioisotope-based filter assay, PRMT8; format: biochemical
T4 construct: (residues 61–394, C-terminus); with C- and N-terminal His-tags; His (N); His (C); purchased Reaction Biology Corporation
T4 sequence (Q9NR22 61-394): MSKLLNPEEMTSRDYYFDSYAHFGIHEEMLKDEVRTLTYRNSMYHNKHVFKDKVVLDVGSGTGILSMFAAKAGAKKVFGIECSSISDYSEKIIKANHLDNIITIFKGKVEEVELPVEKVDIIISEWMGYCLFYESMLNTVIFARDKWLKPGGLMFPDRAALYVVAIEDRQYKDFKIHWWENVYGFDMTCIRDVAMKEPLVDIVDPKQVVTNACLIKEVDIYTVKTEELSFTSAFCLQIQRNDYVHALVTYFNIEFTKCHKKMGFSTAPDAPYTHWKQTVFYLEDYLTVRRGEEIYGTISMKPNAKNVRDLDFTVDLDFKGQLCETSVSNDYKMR
Description: as §5

[1] = Figure 2, from IC50 values of ref 31

remaining activity at 100 µM (GST-HsPRMT7)	selectivity index for PRMT7 over PRMT3 (PRMT3; [1])	selectivity index for PRMT7 over PRMT6 (PRMT6; [1])	selectivity index for PRMT7 over PRMT8 (PRMT8; [1])	IC50 (PRMT3; 5 μM histone H4, 3H-SAM 1 μM)	IC50 (PRMT6; 5 μM GST-GAR, 3H-SAM 1 μM)	IC50 (PRMT8; 5 μM histone H4, 3H-SAM 1 μM)	SMILES	% CePRMT9 residual activity (CePRMT9; 5 uM)	% CePRMT9 residual activity (CePRMT9; 25 uM)	% CePRMT9 residual activity (CePRMT9; 50 uM)	% CePRMT9 residual activity (CePRMT9; 100 uM)
0.5%							COC(=O)c1cc(O)c2cc(NC(=O)NCCCNC(=N)NC[C@H]3O[C@@H](n4cnc5c(N)ncnc54)[C@H](O)[C@@H]3O)ccc2c1 [1a]	106.32%	67.30%	31.52%	19.47%
0.03%	97 fold	455 fold	27 fold				COC(=O)c1cc(O)c2cc(NC(=O)NCCCCCNC(=N)NC[C@H]3O[C@@H](n4cnc5c(N)ncnc54)[C@H](O)[C@@H]3O)ccc2c1 [1c]	110.89%	81.62%	50.08%	12.31%
8.27%							COC(=O)c1cc(O)c2cc(NC(=O)NCCCCNC(=N)NC[C@H]3O[C@@H](n4cnc5c(N)ncnc54)[C@H](O)[C@@H]3O)ccc2c1 [1b]	114.11%	95.80%	52.55%	39.17%
				14.9 µM	49.7 µM	1970 nM	COC(=O)c1cc(O)c2cc(NC(=O)NCCCNC(=N)NC[C@H]3O[C@@H](n4cnc5c(N)ncnc54)[C@H](O)[C@@H]3O)cc(C(F)(F)F)c2c1 [1j, Methyl 6-(3-(3-(3-(((2R,3S,4R,5R)-5-(6-Amino-9H-purin-9-yl)-3,4-dihydroxytetrahydrofuran-2-yl)methyl)guanidino)propyl)ureido)-4-hydroxy-8-(trifluoromethyl)-2-naphthoate]				
